In patent US8355136B2, “Sub-micron surface plasmon resonance sensor systems” (Indiana University Research and Technology Corporation, priority 2005, dated 2013):
Read-outs that look alike come from different tables or passages of the source.

Tests used:
GOx [1] = molecular target: T1, GOx (Aspergillus niger, UniProt P13006); conditions: for relative rate ± error / Ssubstrate − SL-Glu / Isubstrate / S/N / signal (Ibaseline − Isubstrate): 100 mM in PBS, 660 nm; for relative rate ± error: from exponential fits to the time series; for Ssubstrate − SL-Glu: signal minus L-Glu reference signal; for Isubstrate / S/N / signal (Ibaseline − Isubstrate): single MSPRS
T1 sequence (P13006 23-605 limits assumed): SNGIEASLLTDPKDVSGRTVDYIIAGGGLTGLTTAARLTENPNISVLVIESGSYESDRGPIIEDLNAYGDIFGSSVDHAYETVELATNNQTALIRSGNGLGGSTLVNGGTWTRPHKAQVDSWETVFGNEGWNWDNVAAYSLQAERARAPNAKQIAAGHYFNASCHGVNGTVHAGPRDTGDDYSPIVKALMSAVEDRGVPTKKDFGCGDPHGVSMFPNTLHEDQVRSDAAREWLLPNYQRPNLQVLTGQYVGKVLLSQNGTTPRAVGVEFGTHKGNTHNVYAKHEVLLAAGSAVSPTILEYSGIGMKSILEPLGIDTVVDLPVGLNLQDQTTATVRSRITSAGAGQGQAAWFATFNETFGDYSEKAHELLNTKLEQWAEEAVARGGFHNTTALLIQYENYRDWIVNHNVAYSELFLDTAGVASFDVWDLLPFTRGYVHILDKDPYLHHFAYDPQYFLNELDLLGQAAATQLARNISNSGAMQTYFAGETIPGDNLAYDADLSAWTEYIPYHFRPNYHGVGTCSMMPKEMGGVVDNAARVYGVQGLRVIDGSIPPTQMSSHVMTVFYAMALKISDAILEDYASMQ
Description: The resonance measured at 660 nm wavelength was used to monitor reaction kinetics because it had the least overlap with neighboring peaks and because it lay in the red-NIR (near infra-red) optical window of tissue transparency, which allows use of MSPRSs to study complex media like blood, blood plasma and serum.
After depositing the cross-linker, we rinsed the end of the tubing for 10 s with DI-water using a 1 mL syringe. […] After the MSPR sensor signal reached a stable plateau indicating reaction saturation, the sensors were rinsed with DI-water until no further change in signal was recorded.

GOx [2] = molecular target: T1, GOx; conditions: cited from earlier work
GOx [3] = molecular target: T1, GOx; assay: MSPR sensor monitoring of Gox enzymatic activity under substrate flow; conditions: for enzymatic activity response of Gox: flow of substrate, concentration not given
[4] = MSPR sensor, monolayer formation / adsorption kinetics on the gold surface
[5] = Biacore 3000 bare-gold-surface SPR chip, gold-DTSSP binding
[6] = Biacore 3000

Row | Compound | relative rate ± error (GOx [1]) [%] | Ssubstrate − SL-Glu (GOx [1]) [counts/s] | Isubstrate (GOx [1]) [counts/s] | S/N (GOx [1]) | signal (Ibaseline − Isubstrate) (GOx [1]) [counts/s] | reaction rate with GOx as % of the βD-Glu rate (GOx [2]) [%] | further results
1 | O=C[C@@H](O)[C@H](O)[C@@H](O)[C@@H](O)CO [L-Glu, L-Glucose] | 0.00 ± 0 | 0 | 22236 | 21 (13.2 dB) | 521 | 0 | interaction between substrate and sensor (GOx [1]; wash-in and wash-out, PBS baseline): absence of both specific and non-specific interactions; enzymatic activity response of Gox (GOx [3]): no enzymatic activity response
2 | OC[C@H]1O[C@H](O)[C@H](O)[C@@H](O)[C@@H]1O [αD-Glu, α-D-glucose] |  |  |  |  |  | 0.64 | 
3 | O=C(CCSSCCC(=O)ON1C(=O)CC(S(=O)(=O)O)C1=O)ON1C(=O)CC(S(=O)(=O)O)C1=O (centres unmarked) [DTSSP] |  |  |  |  |  |  | time constant of monolayer formation ([4]; Example 5, phosphate buffer pH 5.8 and DI water): 105 ± 8 s; reaction time, gold-DTSSP binding ([4]; Example 6, MSPR sensor, 660 nm, exponential fit): 209 ± 7 s; gold-DTSSP reaction time longer on MSPR sensor than on Biacore ([4]; MSPR sensor versus Biacore 3000): ca. 12%; decrease of MSPR sensor-emitted intensity at 660 nm ([4]; saturated gold-DTSSP reaction, from water baseline): 1,481 counts/s; SPR binding signal [5]: 643 RU; reaction time, gold-DTSSP binding ([5]; exponential fitting): 184 ± 3 s
4 | OC[C@H]1OC(O)[C@@H](O)[C@@H](O)[C@@H]1O (stereo partly drawn) [D-Man] | 0.24 ± 28 | 58 | 22168 | 36 (15.5 dB) | 579 | 1 | 
5 | OC[C@H]1O[C@@H](O)[C@H](O)[C@@H](O)[C@@H]1O [β-D+Glucose] |  |  |  |  |  |  | enzymatic activity of Gox detected (GOx [3]; 1 mM in PBS 1×): the response was much slower; enzymatic activity of Gox detected (GOx [3]; 100 mM in PBS 1×): able to detect the enzymatic activity
6 | CCCCCCCCCCCCS [dodecanethiol] |  |  |  |  |  |  | time constant for the film formation ([4]; 100 mM concentration, from ethanol, first order exponential decay fit): 382 ± 7 s
7 | O=CC[C@@H](O)[C@H](O)[C@H](O)CO [2Do-Glu, 2-Deoxy-D-Glucose] | 0.06 ± 65 | 14 | 22190 | 57 (17.5 dB) | 535 | 20 | enzymatic activity response of Gox (GOx [3]): no enzymatic activity response
8 | glucose oxidase [GOx] |  |  |  |  |  |  | decrease of output signal on binding (6.25 μM in DI-water, from DTSSP baseline): 1,424 counts/s; reaction time, DTSSP-GOx binding (Example 6, MSPR sensor, exponential fit): 211 ± 4 s; SPR binding signal [6]: 553 RU; reaction time, DTSSP-GOx binding ([6]; exponential fitting): 211 ± 4 s
